Read-outs that look alike come from different tables or passages of the source.
Key:
[1] = Cytotoxicity assay in MT-4 cells; assay type: cell-based; details: human, Cell-Titer Glo
Description: (§1) The MT-4 cell line was obtained from the NIH AIDS Research and Reference Reagent Program (Germantown, Md.) and cultured in RPMI-1640 medium (Irvine Scientific, Santa Ana, Calif., Cat #9160) supplemented with 10% FBS, 100 units/mL penicillin, 100 units/mL streptomycin, and 2 mM L-Glutamine. The MT-4 cells were passaged twice per week to maintain cell densities below 0.6×10^6 cells/mL. Complete RPMI-1640 media containing 100× concentrations of 3-fold serially diluted compound, ranging from 26 nM to 530 μM, were stamped in quadruplicate into black 384-well plates. After compound addition, 2×10^3 MT-4 cells were added to each well using a MicroFlo liquid dispenser (BioTek, Winooski, Vt.) and the cells were cultured for 5 days at 37° C. in a 5% CO2 incubator. Following the incubation the cells were allowed to equilibrate to 25° C. and cell viability was determined by adding 25 μL of Cell-Titer Glo viability reagent. The mixture was incubated for 10 minutes at 25° C., and the luminescence signal was quantified on a Victor Luminescence plate reader. The CC50 value is defined as the concentration of compound that reduces cell viability by 50% as determined by the Cell-Titer Glo signal. The data were analyzed using Pipeline Pilot Plate Data Analytics Collection software (Version 7.0, Accelrys, San Diego, Calif.). CC50 values were calculated from a non-linear regression analysis using a 4-parameter sigmoidal dose-response equation: Y=Bottom+(Top-Bottom)/(1+10^[(LogCC50-X)*HillSlope]) where the Top and Bottom were fixed at 100% and 0% cell viability, respectively. CC50 values were calculated as the average± standard deviation of 3 independent experiments.

[2] = Cytotoxicity assay in HEp-2 cells; assay type: cell-based; details: human, uninfected HEp-2 cells, CellTiter Glo
Description: (§2) Cytotoxicity of tested compounds is determined in uninfected HEp-2 cells in parallel with the antiviral activity using the cell viability reagent in a similar fashion as described before for other cell types (Cihlar et al., Antimicrob Agents Chemother. 2008,52(2):655-65.). The same protocol as for the determination of antiviral activity is used for the measurement of compound cytotoxicity except that the cells are not infected with RSV. Instead, an uninfected cell mixture at the same density is added at 20 ul/well to plates containing prediluted compounds, also at 100 nl/sample. Assay plates are then incubated for 4 days followed by a cell viability test using the same CellTiter Glo reagent addition and measurement of luminescent readouts. Untreated cell and cells treated at 2 uM puromycin (Sigma, St. Louis, Mo.) serve as 100% and 0% cell viability control, respectively. The percent of cell viability is calculated for each tested compound concentration relative to the 0% and 100% controls and the CC50 value is determined by non-linear regression as a compound concentration reducing the cell viability by 50%.

RSV strain A2 = assay: Anti-RSV activity, infectious cytopathic cell protection assay in HEp-2 cells; assay type: cell-based, Respiratory Syncytial Virus (RSV)
Description: Antiviral activity against RSV is determined using an infectious cytopathic cell protection assay in HEp-2 cells. In this assay, compounds inhibiting viral infection and/or replication produce a cytoprotective effect against the virus-induced cell killing that can be quantified using a cell viability reagent. The techniques used here are novel adaptations of methods described in published literature (Chapman et al., Antimicrob Agents Chemother. 2007, 51 (9):3346-53.)
HEp-2 cells are obtained from ATCC (Manassas, Va.) and maintained in MEM media supplemented with 10% fetal bovine serum and penicillin/streptomycin. Cells are passaged twice a week and kept at subconfluent stage. Commercial stock of RSV strain A2 (Advanced Biotechnologies, Columbia, Md.) is titered before compound testing to determine the appropriate dilution of the virus stock that generates desirable cytopathic effect in HEp-2 cells.
For antiviral tests, HEp-2 cells are grown in large cell culture flasks to near confluency but not fully so. The compounds to be tested are prediluted in DMSO in 384-well compound dilution plates, either in an 8 or 40 sample per plate standardized dose response format. 3-fold serial dilution increments of each test compound are prepared in the plates and test samples are transferred via acoustic transfer apparatus (Echo, Labcyte) at 100 nl per well into cell culture assay 384-well plates. Each compound dilution is transferred in single or quadruplicate samples into dry assay plates, which are stored until assay is ready to go. The positive and negative controls are laid out in opposite on ends of the plate in vertical blocks (1 column).
Subsequently, an infectious mixture is prepared using an appropriate dilution of virus stock previously determined by titration with cells at a density of 50,000/ml and 20 uL/well is added to test plates w/compounds via automation (uFlow, Biotek). Each plate includes negative and positive controls (16 replicates each) to create 0% and 100% virus inhibition standards, respectively. Following the infection with RSV, testing plates are incubated for 4 days in a 37° C. cell culture incubator. After the incubation, a cell viability reagent, Cell TiterGlo (Promega, Madison, Wis.) is added to the assay plates, which are incubated briefly, and a luminescent readout is measured (Envision, Perkin Elmer) in all the assay plates. The RSV-induced cytopathic effect, percentage inhibition, is determined from the levels of remaining cell viability. These numbers are calculated for each tested concentration relative to the 0% and 100% inhibition controls, and the EC50 value for each compound is determined by non-linear regression as a concentration inhibiting the RSV-induced cytopathic effect by 50%. Various potent anti-RSV tool compounds are used as positive controls for antiviral activity.

MT-4 cells = assay: Cytotoxicity assay in MT-4 cells; assay type: cell-based; details: 5 days, Cell-Titer Glo
Description: as §1

HEp-2 cells = assay: Cytotoxicity assay in HEp-2 cells; assay type: cell-based; details: uninfected HEp-2 cells, 4 days, CellTiter Glo
Description: as §2

[3] = target: T1, RSV ribonucleoprotein (RNP) complexes (Human respiratory syncytial virus A, UniProt P28887); assay: RSV RNP assay (inhibition of RSV RNP transcription); assay type: biochemical, RSV A2; details: crude RSV RNP complexes, 90 minute incubation at 30° C., total radiolabled transcripts reduced by 50%
T1 construct: The supernatant (S3) fraction, containing the enriched RSV RNP complexes, was collected; endogenous in cells; host or cells: HEp-2 cells infected with RSV A2; detergent-extracted S3 fraction (crude RNP)
Description: RSV ribonucleoprotein (RNP) complexes were prepared from a method modified from Mason et al (1). HEp-2 cells were plated at a density of 7.1×10^4 cells/cm^2 in MEM+10% fetal bovine serum (FBS) and allowed to attach overnight at 37° C. (5% CO2). Following attachment, the cells were infected with RSV A2 (MOI=5) in 35 mL MEM+2% FBS. At 20 hours post-infection, the media was replaced with MEM+2% FBS supplemented with 2 m/mL actinomycin D and returned to 37° C. for one hour. The cells were then washed once with PBS and treated with 35 mL of PBS+250 m/mL lyso-lecithin for one minute, after which all liquid was aspirated. The cells were harvested by scrapping them into 1.2 mL of buffer A [50 mM TRIS acetate (pH 8.0), 100 mM potassium acetate, 1 mM DTT and 2 m/mL actinomycin D] and lysed by repeated passage through an 18 gauge needle (10 times). The cell lysate was placed in ice for 10 minutes and then centrifuged at 2400 g for 10 minutes at 4° C. The supernatant (S1) was removed and the pellet (P1) was disrupted in 600 uL of Buffer B [10 mM TRIS acetate (pH 8.0), 10 mM potassium acetate and 1.5 mM MgCl2] supplemented with 1% Triton X-100 by repeated passage through an 18 gauge needle (10 times). The resuspended pellet was placed in ice for 10 minutes and then centrifuged at 2400 g for 10 minutes at 4° C. The supernatant (S2) was removed and the pellet (P2) was disrupted in 600 uL of Buffer B supplemented with 0.5% deoxycholate and 0.1% Tween 40. The resuspended pellet was placed in ice for 10 minutes and then centrifuged at 2400 g for 10 minutes at 4° C. The supernatant (S3) fraction, containing the enriched RSV RNP complexes, was collected and the protein concentration determined by UV absorbance at 280 nm. Aliquoted RSV RNP S3 fractions were stored at −80° C.
Transcription reactions contained 25 μg of crude RSV RNP complexes in 30 μL of reaction buffer [50 mM TRIS-acetate (pH 8.0), 120 mM potassium acetate, 5% glycerol, 4.5 mM MgCl2, 3 mM DTT, 2 mM ethyleneglycol-bis(2-aminoethylether)-tetraacetic acid (EGTA), 50 μg/mL BSA, 2.5 U RNasin (Promega), ATP, GTP, UTP, CTP and 1.5 uCi [α-^32P] NTP (3000 Ci/mmol)]. The radiolabled nucleotide used in the transcription assay was selected to match the nucleotide analog being evaluated for inhibition of RSV RNP transcription. Cold, competitive NTP was added at a final concentration of one-half its Km (ATP=20 μM, GTP=12.5 μM, UTP=6 μM and CTP=2 μM). The three remaining nucleotides were added at a final concentration of 100 μM.
To determine whether nucleotide analogs inhibited RSV RNP transcription, compounds were added using a 6 step serial dilution in 5-fold increments. Following a 90 minute incubation at 30° C., the RNP reactions were stopped with 350 μL of Qiagen RLT lysis buffer and the RNA was purified using a Qiagen RNeasy 96 kit. […]

[4] = human respiratory syncytial virus, 96 h, RSV A2-induced cytopathic effect in HEp-2 cells, 4 days, Cell TiterGlo, read-out: EC50

T1 sequence (P28887 whole entry): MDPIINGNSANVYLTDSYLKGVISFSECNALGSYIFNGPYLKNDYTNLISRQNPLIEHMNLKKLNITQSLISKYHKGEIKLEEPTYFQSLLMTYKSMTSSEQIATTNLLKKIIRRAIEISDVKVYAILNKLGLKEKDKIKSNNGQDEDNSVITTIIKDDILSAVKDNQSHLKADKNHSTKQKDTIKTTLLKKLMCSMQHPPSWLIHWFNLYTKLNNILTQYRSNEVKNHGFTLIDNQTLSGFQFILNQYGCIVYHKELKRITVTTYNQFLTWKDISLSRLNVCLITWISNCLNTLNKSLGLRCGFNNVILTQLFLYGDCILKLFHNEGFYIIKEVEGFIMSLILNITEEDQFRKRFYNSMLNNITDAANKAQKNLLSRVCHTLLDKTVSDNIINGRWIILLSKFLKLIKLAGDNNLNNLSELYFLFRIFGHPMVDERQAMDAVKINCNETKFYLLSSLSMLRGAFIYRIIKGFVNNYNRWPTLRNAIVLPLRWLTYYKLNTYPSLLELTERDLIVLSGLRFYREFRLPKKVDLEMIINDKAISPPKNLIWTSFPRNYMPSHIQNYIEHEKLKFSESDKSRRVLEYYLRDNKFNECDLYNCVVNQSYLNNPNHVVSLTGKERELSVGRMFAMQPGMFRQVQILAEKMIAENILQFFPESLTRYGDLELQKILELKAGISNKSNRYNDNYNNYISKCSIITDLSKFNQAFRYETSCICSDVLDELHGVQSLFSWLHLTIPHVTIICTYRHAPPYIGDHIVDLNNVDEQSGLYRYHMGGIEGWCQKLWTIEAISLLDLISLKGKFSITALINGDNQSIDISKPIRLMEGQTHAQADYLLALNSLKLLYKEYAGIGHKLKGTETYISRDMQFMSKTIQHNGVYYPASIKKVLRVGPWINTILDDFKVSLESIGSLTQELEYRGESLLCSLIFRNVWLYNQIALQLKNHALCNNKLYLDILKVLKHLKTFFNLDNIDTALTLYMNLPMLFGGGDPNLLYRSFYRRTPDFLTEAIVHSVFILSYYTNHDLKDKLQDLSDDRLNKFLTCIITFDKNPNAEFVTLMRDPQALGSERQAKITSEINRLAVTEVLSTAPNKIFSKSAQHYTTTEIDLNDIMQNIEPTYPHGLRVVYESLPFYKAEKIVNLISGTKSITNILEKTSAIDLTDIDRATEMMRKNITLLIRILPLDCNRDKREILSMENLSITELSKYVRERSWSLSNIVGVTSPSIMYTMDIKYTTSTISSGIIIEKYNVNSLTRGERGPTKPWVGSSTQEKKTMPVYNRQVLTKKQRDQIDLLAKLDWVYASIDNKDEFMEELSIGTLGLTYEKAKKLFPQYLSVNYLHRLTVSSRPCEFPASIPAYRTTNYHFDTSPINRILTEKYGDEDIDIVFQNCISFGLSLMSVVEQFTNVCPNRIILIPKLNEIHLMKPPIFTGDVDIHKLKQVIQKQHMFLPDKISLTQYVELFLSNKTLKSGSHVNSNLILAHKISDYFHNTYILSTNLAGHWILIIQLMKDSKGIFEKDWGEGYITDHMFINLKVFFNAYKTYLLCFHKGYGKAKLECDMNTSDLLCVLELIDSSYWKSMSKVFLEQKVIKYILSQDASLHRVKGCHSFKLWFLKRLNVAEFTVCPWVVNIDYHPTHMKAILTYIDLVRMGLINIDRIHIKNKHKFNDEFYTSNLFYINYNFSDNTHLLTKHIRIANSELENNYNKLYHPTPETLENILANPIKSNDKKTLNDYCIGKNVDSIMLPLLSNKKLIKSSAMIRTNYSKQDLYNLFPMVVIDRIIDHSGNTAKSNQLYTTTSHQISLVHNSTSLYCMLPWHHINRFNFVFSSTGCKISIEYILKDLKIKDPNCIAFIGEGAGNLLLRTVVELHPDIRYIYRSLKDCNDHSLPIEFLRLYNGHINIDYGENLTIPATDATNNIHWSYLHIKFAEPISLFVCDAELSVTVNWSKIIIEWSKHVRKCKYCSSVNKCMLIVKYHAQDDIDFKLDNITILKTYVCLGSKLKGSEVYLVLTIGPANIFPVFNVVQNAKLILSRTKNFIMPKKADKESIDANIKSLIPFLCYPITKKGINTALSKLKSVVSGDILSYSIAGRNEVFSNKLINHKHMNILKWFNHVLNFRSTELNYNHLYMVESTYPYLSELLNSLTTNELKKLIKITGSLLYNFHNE
T1 sequence (P03421 whole entry, further chain): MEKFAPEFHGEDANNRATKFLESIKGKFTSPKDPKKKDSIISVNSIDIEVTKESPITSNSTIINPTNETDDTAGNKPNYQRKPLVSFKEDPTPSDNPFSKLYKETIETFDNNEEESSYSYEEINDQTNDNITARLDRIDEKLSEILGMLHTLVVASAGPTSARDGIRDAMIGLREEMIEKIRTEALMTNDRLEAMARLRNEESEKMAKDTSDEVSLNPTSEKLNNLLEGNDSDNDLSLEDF

Row | SMILES | CC50 at 5 days [1] | CC50 at 4 days [2] | EC50 (RSV strain A2; [4]) | IC50 [3] | further results
1 | [N-]=[N+]=N[C@]1(CO)O[C@@H](c2csc3c(N)ncnc23)[C@H](F)[C@@H]1O [Example 1, (2R,3R,4R,5S)-5-(4-aminothieno[3,2-d]pyrimidin-7-yl)-2-azido-4-fluoro-2-(hydroxymethyl)-tetrahydrofuran-3-ol] | 59 µM | > 100 µM | 0.208 µM | – | –
2 | N#C[C@]1(CO)O[C@@H](c2csc3c(N)ncnc23)[C@H](F)[C@@H]1O [Example 2, (2R,3R,4R,5S)-5-(4-aminothieno[3,2-D]pyrimidin-7-yl)-4-fluoro-3-hydroxy-2-(hydroxymelthyl)tetrahydrofuran-2-carbonitrile] | – | – | – | – | CC50 (MT-4 cells): > 114 µM; CC50 (HEp-2 cells): > 100 µM; EC50 (RSV strain A2; RSV A2-induced cytopathic effect in HEp-2 cells, 4 days, Cell TiterGlo, read-out: EC50): 6.5 µM
3 | N#C[C@]1(CO)O[C@@H](c2csc3c(N)ncnc23)[C@H](O)[C@@H]1O [Example 3, (2R,3S,4R,5S)-5-(4-aminothieno[3,2-d]pyrimidin-7-yl)-3,4-dihydroxy-2-(hydroxymelthyl)tetrahydrofuran-2-carbonitrile] | > 57 µM | > 50 µM | 5 µM | – | –
4 | [N-]=[N+]=N[C@]1(CO)O[C@@H](c2csc3c(N)ncnc23)[C@H](Cl)[C@@H]1O [Example 4, (2R,3R,4R,5S)-5-(4-Aminothieno[3,2-d]pyrimidin-7-yl)-2-azido-4-chloro-2-(hydroxymethyl)tetrahydrofuran-3-ol] | 93 µM | > 93 µM | > 98 µM | – | –
5 | CCOC(=O)[C@H](C)NP(=O)(OC[C@@]1(N=[N+]=[N-])O[C@@H](c2csc3c(N)ncnc23)[C@H](F)[C@@H]1O)Oc1ccccc1 (stereo partly drawn) [Example PD1, (2S)-ethyl 2-(((((2R,3R,4R,5S)-5-(4-aminothieno[3,2-d]pyrimidin-7-yl)-2-azido-4-fluoro-3-hydroxytetrahydrofuran-2-yl)methoxy)(phenoxy)phosphoryl)amino)propanoate] | 10.4 µM | > 50 µM | – | – | EC50 (RSV strain A2; human respiratory syncytial virus, HEp-2, 96 h): 0.556 µM
6 | [N-]=[N+]=N[C@]1(COP(=O)(O)OP(=O)(O)OP(=O)(O)O)O[C@@H](c2csc3c(N)ncnc23)[C@H](F)[C@@H]1O [Example TP1, ((2R,3R,4R,5S)-5-(4-aminothieno[3,2-d]pyrimidin-7-yl)-2-azido-4-fluoro-3-hydroxytetrahydrofuran-2-yl)methyl tetrahydrogen triphosphate] | – | – | – | 0.076 µM | –
7 | N#C[C@]1(COP(=O)(O)OP(=O)(O)OP(=O)(O)O)O[C@@H](c2csc3c(N)ncnc23)[C@H](F)[C@@H]1O [Example TP2, ((2R,3R,4R,5S)-5-(4-aminothieno[3,2-d]pyrimidin-7-yl)-2-cyano-4-fluoro-3-hydroxytetrahydrofuran-2-yl)methyl tetrahydrogen triphosphate] | – | – | – | 0.042 µM | –
8 | N#C[C@]1(COP(=O)(O)OP(=O)(O)OP(=O)(O)O)O[C@@H](c2csc3c(N)ncnc23)[C@H](O)[C@@H]1O [Example TP3, ((2R,3S,4R,5S)-5-(4-aminothieno[3,2-d]pyrimidin-7-yl)-2-cyano-3,4-dihydroxytetrahydrofuran-2-yl)methyl tetrahydrogen triphosphate] | – | – | – | 0.036 µM | –
9 | [N-]=[N+]=N[C@]1(COP(=O)(O)OP(=O)(O)OP(=O)(O)O)O[C@@H](c2csc3c(N)ncnc23)[C@H](Cl)[C@@H]1O [Example TP4, ((2R,3R,4R,5S)-5-(4-aminothieno[3,2-d]pyrimidin-7-yl)-2-azido-4-chloro-3-hydroxytetrahydrofuran-2-yl)methyl tetrahydrogen triphosphate] | – | – | – | 0.2 µM | –

— patent US10179794B2, “Thieno[3,2-d]pyrimidine, furo[3,2-d]pyrimidine, and pyrrolo[3,2-D]pyrimidines useful for treating respiratory syncitial virus infections” (Gilead Sciences, Inc., priority 2014, dated 2019)
